From paper PMC4079550 (Theriogenology, 2014)

Assays:
[1] = tested on: mice; conditions: ref [24]; cited from earlier work
[2] = tested on: male C57/Bl6 mice; experiment: Systemic toxicity: complete blood counts and routine chemistries; assay type: in vivo, mouse; conditions: melphalan alone 7.5 mg/kg ip once, data not shown
[3] = tested on: murine testicular cells; experiment: Microscopic appearance of testicular cell cultures; assay type: cell-based, Sprague–Dawley rat; conditions: 20 μM, over 72 hours, Figure 2
[4] = tested on: mouse fibroblasts; experiment: LDH release cytotoxicity experiment using mouse fibroblasts; assay type: cell-based; conditions: at 72 hours, P<0.01 between the two
[5] = tested on: Sertoli cells; experiment: Anti-Mullerian hormone; assay type: cell-based, Sprague–Dawley rat; conditions: 20 uM, after 24 and 48 hours of incubation; bright staining in control cultures
[6] = tested on: male C57/Bl6 mice; experiment: Effect on spermatogenesis in vivo; set-up: species or system mouse
[7] = tested on: male C57/Bl6 mice; experiment: Testicular histology after treatment in vivo; set-up: species or system mouse; conditions: single dose, Bouin's fixative, Hematoxylin-Periodic acid Schiff's stain, Figure 3
[8] = melphalan 7.5 mg/kg ip once on day 0, Week 4, n = 3 mice
[9] = melphalan 7.5 mg/kg ip once on day 0, Week 12, n = 3 mice

Row | SMILES | Increase of contraceptive efficacy by conjugation to FSHβ [1] | Lymphocytes count at 4 weeks ([2]; 4 weeks) | Lymphocyte count at 12 weeks ([2]; 12 weeks) | Microscopic appearance of cultures compared to control cultures [3] | LDH release [4] | Staining for AMH (marker of Sertoli cells) [5] | Daily Sperm Production/testis [6, 8] | Spermatids/Testis [6, 8] | Spermatids/mg of Tissue [6, 8] | Daily Sperm Production/testis [6, 9] | Spermatids/Testis [6, 9] | Spermatids/mg of Tissue [6, 9] | Testis histology at four weeks [7]
1 | NNC(=O)c1nn(Cc2ccc(Cl)cc2Cl)c2ccccc12 [adjudin] | 10,000 fold |  |  |  |  |  |  |  |  |  |  |  | 
2 | N[C@@H](Cc1ccc(N(CCCl)CCCl)cc1)C(=O)O [Melphalan] |  | slight, non-significant reduction | normal | marked cell death | 20 % of maximal LDH release | very little | 0.515±0.013 ×10^6 | 2.5±0.06 ×10^6 | 0.054±0.003 ×10^6 | 1.9±0.12 ×10^6 | 9.2±0.57 ×10^6 | 0.106±0.10 ×10^6 | Marked loss of spermatocytes and spermatids
